Data: patent publication US11759462B2, “Spirocyclic compounds as tryptophan hydroxylase inhibitors” (priority 2013, dated 2023)
Read-outs that look alike come from different tables or passages of the source.

Target: T1, Recombinant human TPH1 (MBP tagged) (Homo sapiens, UniProt P17752)
T1 construct: cloning full length human TPH1 cDNA in to a bacterial pMAL-c5E expression vector; made in house; host or cells: E. coli BL21 (DE3)
T1 sequence (P17752 1-444): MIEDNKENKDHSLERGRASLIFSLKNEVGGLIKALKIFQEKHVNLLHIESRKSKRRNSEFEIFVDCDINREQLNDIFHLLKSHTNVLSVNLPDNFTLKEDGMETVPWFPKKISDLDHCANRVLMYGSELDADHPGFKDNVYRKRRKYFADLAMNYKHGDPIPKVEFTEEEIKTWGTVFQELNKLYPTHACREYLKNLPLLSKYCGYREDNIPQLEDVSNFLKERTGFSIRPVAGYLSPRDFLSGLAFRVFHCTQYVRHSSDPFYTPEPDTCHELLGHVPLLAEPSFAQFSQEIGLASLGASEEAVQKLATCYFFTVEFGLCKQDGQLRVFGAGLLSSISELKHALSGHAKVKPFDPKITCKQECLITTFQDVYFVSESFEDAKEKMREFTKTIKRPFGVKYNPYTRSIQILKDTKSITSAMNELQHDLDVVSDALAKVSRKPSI
Test: TPH1 in vitro inhibition assay (kinetic fluorescence)
Assay type: biochemical
Method in brief: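 Final mix: 15 nM MBP-TPH1, 30 μM Trp, 36 μM 6-methyltetrahydropterin, 25 μM ferrous ammonium sulfate, 50 mM MES pH 7.1, 1% DMSO, room temperature.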

[1] = read-out: TPH1 Range (TPH1 inhibition IC50)

Compound	IC50 [1]	IC50 (TPH1 Range (TPH1 inhibition IC50))
CCOC(=O)c1ccc(-n2ccc(C)n2)c([C@@H](Oc2cc(N3CCC4(CC3)CN[C@H](C(=O)O)C4)nc(N)n2)C(F)(F)F)c1 [Example 23, (S)-8-(2-Amino-6-((R)-1-(5-(ethoxycarbonyl)-2-(3-methyl-1H-pyrazol-1-yl)phenyl)-2,2,2-trifluoroethoxy)pyrimidin-4-yl)-2,8-diazaspiro[4.5]decane-3-carboxylic acid]	< 0.05 µM	–
COc1ccc(-c2ccc([C@@H](Oc3cc(N4CCC5(CC4)CN[C@H](C(=O)O)C5)nc(N)n3)C(F)(F)F)c(-n3ccc(C)n3)c2)cc1F [Example 1ci, (S)-8-(2-amino-6-((R)-2,2,2-trifluoro-1-(3′-fluoro-4′-methoxy-3-(3-methyl-1H-pyrazol-1-yl)-[1,1′-biphenyl]-4-yl)ethoxy)pyrimidin-4-yl)-2,8-diazaspiro[4.5]decane-3-carboxylic acid]	< 0.05 µM	–
Cc1ccn(-c2cc(-c3ccc(CN)cc3)ccc2[C@@H](Oc2cc(N3CCC4(CC3)CN[C@H](C(=O)O)C4)nc(N)n2)C(F)(F)F)n1 [Example 1ab, (S)-8-(2-amino-6-((R)-1-(4′-(aminomethyl)-3-(3-methyl-1H-pyrazol-1-yl)-[1,1′-biphenyl]-4-yl)-2,2,2-trifluoroethoxy)pyrimidin-4-yl)-2,8-diazaspiro[4.5]decane-3-carboxylic acid]	< 0.05 µM	–
Cc1ccn(-c2cc(-c3ccc4ccccc4c3)ccc2[C@@H](Oc2cc(N3CCC4(CC3)CN[C@H](C(=O)O)C4)nc(N)n2)C(F)(F)F)n1 [Example 1bw, (S)-8-(2-amino-6-((R)-2,2,2-trifluoro-1-(2-(3-methyl-1H-pyrazol-1-yl)-4-(naphthalen-2-yl)phenyl)ethoxy)pyrimidin-4-yl)-2,8-diazaspiro[4.5]decane-3-carboxylic acid]	0.05 to 0.3 µM	–
CC(C)(C)c1ccn(-c2cc(Cl)ccc2[C@@H](Oc2cc(N3CCC4(CC3)CN[C@H](C(=O)O)C4)nc(N)n2)C(F)(F)F)n1 [Example 10pa, (S)-8-(2-amino-6-((R)-1-(2-(3-(tert-butyl)-1H-pyrazol-1-yl)-4-chlorophenyl)-2,2,2-trifluoroethoxy)pyrimidin-4-yl)-2,8-diazaspiro[4.5]decane-3-carboxylic acid]	0.05 to 0.3 µM	–
C/C=C/c1ccc(-c2cccc(S(C)(=O)=O)c2)c([C@@H](Oc2cc(N3CCC4(CC3)CN[C@H](C(=O)O)C4)nc(N)n2)C(F)(F)F)c1 [Example 50, (S)-8-(2-Amino-6-((R)-2,2,2-trifluoro-1-(3′-(methylsulfonyl)-4-((E)-prop-1-en-1-yl)-[1,1′-biphenyl]-2-yl)ethoxy)pyrimidin-4-yl)-2,8-diazaspiro[4.5]decane-3-carboxylic acid]	0.05 to 0.3 µM	–
Nc1nc(O[C@H](c2ccc(Cl)cc2-c2cccc(C(=O)NC3CCC(O)CC3)c2)C(F)(F)F)cc(N2CCC3(CC2)CN[C@H](C(=O)O)C3)n1 (stereo partly drawn) [Example 34cc, (S)-8-(2-amino-6-((R)-1-(5-chloro-3′-(((1R,4R)-4-hydroxycyclohexyl)carbamoyl)-[1,1′-biphenyl]-2-yl)-2,2,2-trifluoroethoxy)pyrimidin-4-yl)-2,8-diazaspiro[4.5]decane-3-carboxylic acid]	0.05 to 0.3 µM	–
Cc1ccn(-c2cc(-c3cccc(C(=O)O)c3)ccc2[C@@H](Oc2cc(N3CCC4(CC3)CN[C@H](C(=O)O)C4)nc(N)n2)C(F)(F)F)n1 [Example 1d, (S)-8-(2-amino-6-((R)-1-(3′-carboxy-3-(3-methyl-1H-pyrazol-1-yl)-[1,1′-biphenyl]-4-yl)-2,2,2-trifluoroethoxy)pyrimidin-4-yl)-2,8-diazaspiro[4.5]decane-3-carboxylic acid]	< 0.05 µM	–

Results, then the molecule that gave them:

IC50 [1]	IC50 (TPH1 Range (TPH1 inhibition IC50))	Compound
0.05 to 0.3 µM	–	CS(=O)(=O)c1ccc(-c2ccc([C@@H](Oc3cc(N4CCC5(CC4)CN[C@H](C(=O)O)C5)nc(N)n3)C(F)(F)F)cc2)cc1 [Example 55di, (S)-8-(2-amino-6-((R)-2,2,2-trifluoro-1-(4′-(methylsulfonyl)-[1,1′-biphenyl]-4-yl)ethoxy)pyrimidin-4-yl)-2,8-diazaspiro[4.5]decane-3-carboxylic acid]
0.05 to 0.3 µM	–	Nc1nc(O[C@H](c2ccc(-c3ccc4cn[nH]c4c3)cc2)C(F)(F)F)cc(N2CCC3(CC2)CN[C@H](C(=O)O)C3)n1 [Example 55h, (S)-8-(6-((R)-1-(4-(1H-indazol-6-yl)phenyl)-2,2,2-trifluoroethoxy)-2-aminopyrimidin-4-yl)-2,8-diazaspiro[4.5]decane-3-carboxylic acid]
0.3 to 3 µM	–	Cc1ccc(-c2ccc([C@@H](Oc3cc(N4CCC5(CC4)CN[C@H](C(=O)O)C5)nc(N)n3)C(F)(F)F)cc2)cc1 [Example 55cw, (S)-8-(2-amino-6-((R)-2,2,2-trifluoro-1-(4′-methyl-[1,1′-biphenyl]-4-yl)ethoxy)pyrimidin-4-yl)-2,8-diazaspiro[4.5]decane-3-carboxylic acid]
< 0.05 µM	–	Nc1nc(O[C@H](c2ccc(-c3ccc4nnccc4c3)cc2)C(F)(F)F)cc(N2CCC3(CC2)CN[C@H](C(=O)O)C3)n1 [Example 55dp, (S)-8-(2-amino-6-((R)-1-(4-(cinnolin-6-yl)phenyl)-2,2,2-trifluoroethoxy)pyrimidin-4-yl)-2,8-diazaspiro[4.5]decane-3-carboxylic acid]
0.05 to 0.3 µM	–	Cc1cc(-c2cc(Cl)ccc2[C@@H](Oc2cc(N3CCC4(CC3)CN[C@H](C(=O)O)C4)nc(N)n2)C(F)(F)F)ccc1OC(F)(F)F [Example 34bb, (S)-8-(2-amino-6-((R)-1-(5-chloro-3′-methyl-4′-(trifluoromethoxy)-[1,1′-biphenyl]-2-yl)-2,2,2-trifluoroethoxy)pyrimidin-4-yl)-2,8-diazaspiro[4.5]decane-3-carboxylic acid]
0.05 to 0.3 µM	–	Nc1nc(O[C@H](c2ccc(Cl)cc2-c2cccc(OC(F)(F)F)c2)C(F)(F)F)cc(N2CCC3(CC2)CN[C@H](C(=O)O)C3)n1 [Example 34bg, (S)-8-(2-amino-6-((R)-1-(5-chloro-3′-(trifluoromethoxy)-[1,1′-biphenyl]-2-yl)-2,2,2-trifluoroethoxy)pyrimidin-4-yl)-2,8-diazaspiro[4.5]decane-3-carboxylic acid]
< 0.05 µM	–	C/C=C/c1ccc(-n2ccc(C)n2)c([C@@H](Oc2cc(N3CCC4(CC3)CN[C@H](C(=O)O)C4)nc(N)n2)C(F)(F)F)c1 [Example 19b, (S)-8-(2-amino-6-((R)-2,2,2-trifluoro-1-(2-(3-methyl-1H-pyrazol-1-yl)-5-((E)-prop-1-en-1-yl)phenyl)ethoxy)pyrimidin-4-yl)-2,8-diazaspiro[4.5]decane-3-carboxylic acid]
0.05 to 0.3 µM	–	Nc1nc(O[C@H](c2ccc(Cl)cc2-c2cccc(CO)c2)C(F)(F)F)cc(N2CCC3(CC2)CN[C@H](C(=O)O)C3)n1 [Example 34m, (S)-8-(2-amino-6-((R)-1-(5-chloro-3′-(hydroxymethyl)-[1,1′-biphenyl]-2-yl)-2,2,2-trifluoroethoxy)pyrimidin-4-yl)-2,8-diazaspiro[4.5]decane-3-carboxylic acid]
0.05 to 0.3 µM	–	Nc1nc(O[C@H](c2ccc(Cl)cc2-c2cc(F)c(F)c(F)c2)C(F)(F)F)cc(N2CCC3(CC2)CN[C@H](C(=O)O)C3)n1 [Example 34bf, (S)-8-(2-amino-6-((R)-1-(5-chloro-3′,4′,5′-trifluoro-[1,1′-biphenyl]-2-yl)-2,2,2-trifluoroethoxy)pyrimidin-4-yl)-2,8-diazaspiro[4.5]decane-3-carboxylic acid]
–	0.05 to 0.3 µM	CS(=O)(=O)Nc1cccc(-c2cc(Cl)ccc2[C@@H](Oc2cc(N3CCC4(CC3)CN[C@H](C(=O)O)C4)nc(N)n2)C(F)(F)F)c1 [Example 34n, (S)-8-(2-amino-6-((R)-1-(5-chloro-3′-(methylsulfonamido)-[1,1′-biphenyl]-2-yl)-2,2,2-trifluoroethoxy)pyrimidin-4-yl)-2,8-diazaspiro[4.5]decane-3-carboxylic acid]
< 0.05 µM	–	CCCc1ccc([C@@H](Oc2cc(N3CCC4(CC3)CN[C@H](C(=O)O)C4)nc(N)n2)C(F)(F)F)c(-c2cccc(S(C)(=O)=O)c2)c1 [Example 54a, (S)-8-(2-Amino-6-((R)-2,2,2-trifluoro-1-(3′-(methylsulfonyl)-5-propyl-[1,1′-biphenyl]-2-yl)ethoxy)pyrimidin-4-yl)-2,8-diazaspiro[4.5]decane-3-carboxylic acid]
0.3 to 3 µM	–	Cc1ccc(-c2ccc([C@@H](Oc3cc(N4CCC5(CC4)CN[C@H](C(=O)O)C5)nc(N)n3)C(F)(F)F)cc2)cc1F [Example 55cu, (S)-8-(2-amino-6-((R)-2,2,2-trifluoro-1-(3′-fluoro-4′-methyl-[1,1′-biphenyl]-4-yl)ethoxy)pyrimidin-4-yl)-2,8-diazaspiro[4.5]decane-3-carboxylic acid]
< 0.05 µM	–	CCOC(=O)c1ccc(-c2ccc([C@@H](Oc3cc(N4CCC5(CC4)CN[C@H](C(=O)O)C5)nc(C)n3)C(F)(F)F)c(-n3ccc(C)n3)c2)cc1 [Example 29i, (S)-8-(6-((R)-1-(4′-(ethoxycarbonyl)-3-(3-methyl-1H-pyrazol-1-yl)-[1,1′-biphenyl]-4-yl)-2,2,2-trifluoroethoxy)-2-methylpyrimidin-4-yl)-2,8-diazaspiro[4.5]decane-3-carboxylic acid]
0.3 to 3 µM	–	Nc1nc(O[C@H](c2ccc(-c3cncnc3)cc2)C(F)(F)F)cc(N2CCC3(CC2)CN[C@H](C(=O)O)C3)n1 [Example 55ay, (S)-8-(2-amino-6-((R)-2,2,2-trifluoro-1-(4-(pyrimidin-5-yl)phenyl)ethoxy)pyrimidin-4-yl)-2,8-diazaspiro[4.5]decane-3-carboxylic acid]
